system: SHBG; experiment: Serum SHBG level prior to patch application in the pharmacokinetic study; format: in vivo, human; settings: mean±SEM, surgically menopausal women on the estrogen
Text: The structure and proposed functions of SHBG have been described and characterized. See, for example, Rosner et al., Sex Hormone-Binding Globulin Mediates Steroid Hormone Signal Transduction at the Plasma Membrane, J. Steroid Biochem. Mol. Biol. Vol. 69:481-5 (1999); Petra, P. H. The plasma Sex Steroid Binding Protein (SBP or SHBG). A Critical Review of Recent Developments on the Structure, Molecular Biology, and Function, J. Steroid Biochem. Mol. Biol., Vol. 40:735-53 (1991). A variety of methods have been used to quantify the serum concentrations of SHBG, including ammonium sulfate precipitation, gel filtration, equilibrium dialysis, dextran-coated charcoal, and radioimmunoassay. See, for example, Khan et al., Radioimmunoassay for Human Testosterone-Estradiol-Binding Globulin, J. Clinical Endocrinology and Metabolism, Vol. 54:705-710 (1982). […] Serum SHBG levels are known to be elevated in women treated with oral estrogens, estrogen-containing oral contraceptives, clomiphene, tamoxifen, raloxifene, phenytoin, and sodium valproate, as well as in women who are pregnant, hyperthyroid, have chronic liver disease and HIV-infection. See for example, Bond et al., Sex Hormone Binding Globulin in Clinical Perspective, Acta. Obstet. Gynecol. […]

Question: Which SHBG does the source give for `C[C@]12CC[C@@H]3c4ccc(O)cc4CC[C@H]3[C@@H]1CC[C@@H]2O` [estradiol] here?
Answer: 90.8 ± 12.9 nmol/L

biological target: T1, sex hormone binding globulin (SHBG) (Homo sapiens, UniProt P04278); experiment: not given; settings: adapted from Dunn et al. 1981; human plasma; cited from earlier work
T1 sequence (P04278 30-402): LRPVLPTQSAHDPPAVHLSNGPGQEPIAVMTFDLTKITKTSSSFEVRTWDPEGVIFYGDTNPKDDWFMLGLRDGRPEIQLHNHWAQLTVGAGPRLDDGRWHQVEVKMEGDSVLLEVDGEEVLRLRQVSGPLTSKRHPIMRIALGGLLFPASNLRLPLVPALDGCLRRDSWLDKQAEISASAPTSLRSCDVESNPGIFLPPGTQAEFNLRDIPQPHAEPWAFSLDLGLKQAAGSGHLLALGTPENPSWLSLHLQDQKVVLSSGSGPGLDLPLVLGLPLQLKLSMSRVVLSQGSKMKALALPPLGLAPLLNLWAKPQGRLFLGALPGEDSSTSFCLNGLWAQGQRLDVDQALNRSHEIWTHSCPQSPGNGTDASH

Question: For `C[C@]12CC[C@H](O)CC1=CC[C@@H]1[C@@H]2CC[C@]2(C)C(=O)CC[C@@H]12` [dehydroepiandrosterone], which “K (binding affinity constant for SHBG)” value is on record?
Answer: 66 10^6 Liter/mole

Question: Which “K (binding affinity constant for SHBG)” value does the source give for `C[C@]12CC[C@@H](O)C[C@@H]1CC[C@@H]1[C@@H]2CC[C@]2(C)C(=O)CC[C@@H]12` [androsterone] here?
Answer: 14 10^6 Liter/mole

Question: Which “K (binding affinity constant for SHBG)” value does the source give for `CC(=O)[C@@]1(O)CC[C@H]2[C@@H]3CCC4=CC(=O)CC[C@]4(C)[C@H]3CC[C@@]21C` [17-hydroxyprogesterone] here?
Answer: 9.9 10^6 Liter/mole

Question: Which “K (binding affinity constant for SHBG)” value does the source give for `C[C@]12CCC(O)C[C@@H]1CC[C@@H]1[C@@H]2CC[C@]2(C)[C@@H](O)CC[C@@H]12` (some centres unmarked) [androstanediol] here?
Answer: 1300 10^6 Liter/mole

Question: With `C[C@]12CCC(=O)C[C@@H]1CC[C@@H]1[C@@H]2CC[C@]2(C)[C@@H](O)CC[C@@H]12` [dihydrotestosterone] as the compound, how does the “K (binding affinity constant for SHBG)” value read?
Answer: 5500 10^6 Liter/mole

Question: Which “K (binding affinity constant for SHBG)” value does the source give for `C[C@]12CC[C@@H]3c4ccc(O)cc4CC[C@H]3[C@@H]1C[C@@H](O)[C@@H]2O` [estriol] here?
Answer: 4.3 10^6 Liter/mole

Question: With `CC(=O)[C@H]1CC[C@H]2[C@@H]3CCC4=CC(=O)CC[C@]4(C)[C@H]3CC[C@]12C` [progesterone] as the compound, how does the “K (binding affinity constant for SHBG)” value read?
Answer: 8.8 10^6 Liter/mole

Question: Which “K (binding affinity constant for SHBG)” value does the source give for `C[C@]12CCC(=O)C=C1CC[C@@H]1[C@@H]2CC[C@]2(C)C(=O)CC[C@@H]12` [androstenedione] here?
Answer: 29 10^6 Liter/mole

system: SHBG; experiment: not given; settings: known from literature (Bond et al. 1987; Miller et al. 1998); cited from earlier work

Question: Which “Serum SHBG levels in women treated” value does the source give for `CCN(CC)CCOc1ccc(C(=C(Cl)c2ccccc2)c2ccccc2)cc1` [clomiphene] here?
Answer: elevated

Question: With `O=C1NC(=O)C(c2ccccc2)(c2ccccc2)N1` [phenytoin] as the compound, how does the “Serum SHBG levels in women treated” value read?
Answer: elevated

Question: With `O=C(c1ccc(OCCN2CCCCC2)cc1)c1c(-c2ccc(O)cc2)sc2cc(O)ccc12` [raloxifene] as the compound, how does the “Serum SHBG levels in women treated” value read?
Answer: elevated

Question: Which “Serum SHBG levels in women treated” value does the source give for `CCCC(CCC)C(=O)[O-].[Na+]` [sodium valproate] here?
Answer: elevated

Question: For `CC/C(=C(\c1ccccc1)c1ccc(OCCN(C)C)cc1)c1ccccc1` [tamoxifen], which “Serum SHBG levels in women treated” value is on record?
Answer: elevated
